The values below come from article PMC11858854, “In Vitro and In Vivo Assessment of Pharmacokinetic Profile of Peramivir in the Context of Inhalation Therapy” (Pharmaceuticals, 2025).

Where only a bound is given, the exact number is not on record here.

For series [1] the following is noted: oral; cited from earlier work.
The subject of series [2] is NCI-H441/dTHP co-culture model. Put plainly: Bidirectional transport, NCI-H441/dTHP co-culture model. The class given is in vitro ADME, human. As to conditions: NCI-H441/dTHP, 2 μM. The procedure: THP-1 cells were cultured in RPMI-1640 medium (Gibco, Thermo, CA, USA) supplemented with 10% FBS, PS (100 U/mL), and β-Mer (0.05 mM) at 37 °C in a humidified 5% CO2 incubator, and the medium was changed every other day. THP-1 cells were seeded at 4 × 10^5 cells/mL in six-well plates and induced for 48 h by adding medium containing a final concentration of 100 ng/mL PMA.
Then, the differentiated cells were seeded at 5 × 10^4 cells/well on the surface of NCI-H441 cells 10 days after air–liquid culture and continued to co-culture for 24 h.
(§1) We removed the liquid from the apical and basolateral of the Transwell, rinsed the cells three times with a buffer containing HBSS, 10 mM Hepes, and 0.1% BSA (Buffer A), and then added Buffer A (100 µL for the apical side and 600 µL for the basolateral side) for pre-incubation for 30 min at 37 °C. For the transport studies in the apical to basolateral (A-B) direction, 100 μL of pre-warmed test solution (Buffer A containing 2 µM positive control drugs or peramivir) was added to the apical side, while 600 μL of pre-warmed assay buffer, a buffer containing HBSS, 10 mM Hepes, and 1% BSA (Buffer B), was added to the basolateral compartment.

Series [3] deals with NCI-H441 cell model. Put plainly: Bidirectional transport, NCI-H441 air-liquid culture model. The format is in vitro ADME, human. The note with it: NCI-H441, 2 μM. The procedure: NCI-H441 cells were cultured in RPMI-1640 medium (Gibco, Thermo, CA, USA) supplemented with 10% FBS and PS (100 U/mL) at 37 °C in a humidified 5% CO2 incubator, and the medium was changed every other day. […] Then, 850 μL of complete medium (containing 200 nM dexamethasone) was added to the basolateral chamber. […] Subsequently, an air-interfaced culture (AIC) was initiated by supplying 650 μL of culture medium to the basolateral chamber only. The culture medium was replaced every other day.
as §1

On the set-up of series [4]: method as in PMID 15196586. As to conditions: cited from earlier work.
For series [5], the system named is overexpressed cell lines (uptake transporters). Nature of the series: Uptake study by overexpression cell lines, 10 μM substrate. The format is in vitro ADME. As to conditions: substrate concentration 10 μM. As for the experimental part:
All cells (HEK293-MOCK, HEK293-OCT1, HEK293-OCT2, MDCK-MOCK, MDCK-OCTN1, and MDCK-OCTN2) were cultured in DMEM medium supplemented with 10% FBS and PS (100 U/mL), at 37 °C in a humidified 5% CO2 incubator. Cells were seeded on 24-well plates at a density of 1 × 10^4 cells/well. For the uptake assay, the DMEM media were removed, and the cells were washed with pre-warmed Hank’s buffer three times (1 mL/well). Subsequent addition of inhibitor-free/inhibitor-containing buffer was pre-incubated for 30 min at 37 °C prior to the initiation of the uptake experiment. After the pre-incubating buffer was removed, 200 μL of pre-warmed test drugs solution (Hank’s buffer containing 10 µM and 50 µM peramivir) or a mixture of test drugs and inhibitor was added into each well, and the plates were incubated at 37 °C for 5 min. At the end of incubation, cells were washed and lysed as described above. The cell lysate was collected and stored at −40 °C for LC-MS/MS analysis and protein measurement. The negative control (MOCK cells) and positive control were included simultaneously.

Turning to `CCC(CC)[C@H](NC(C)=O)[C@@H]1[C@H](O)[C@@H](C(=O)O)C[C@H]1N=C(N)N` [Peramivir], the oral bioavailability in series [1] was 3%. The figures for the ER in series [2] and in series [3] were 0.75 and 1.11, respectively. Also, the “Papp A-B” value in series [2] (Mean ± SD, n = 3) is given as 1.19 ± 0.16 ×10−6 cm/s; in series [3] (Mean ± SD, n = 3) it was 1.15 ± 0.16 ×10−6 cm/s. For the same compound, the “Papp B-A” value in series [2] (Mean ± SD, n = 3) is listed as 0.9 ± 0.17 ×10−6 cm/s; in series [3] (Mean ± SD, n = 3) it was 1.28 ± 0.36 ×10−6 cm/s. Moreover, the BDDCS category entry in series [4] (high solubility/low metabolism) is “BDDCS-III”. Also, the BCS category result in series [4] (high solubility/low permeability) is recorded as “BCS-III”. The “concentration of peramivir in uptake experiment (below the detection limit)” value in series [5] is below 2 nM.
